Test results reported in US20260232666A1, “COMPOSITIONS AND METHODS FOR INHIBITION OF RAS” (TheRas, Inc., priority 2023, published 2026).

Columns and labels:
[1] = target: T1, Avi-KRAS G12C (1-169) GppNHp/RAF1 RBD-3×FLAG (52-151) (Homo sapiens, UniProt P01116, G12C); experiment: Raf1 RBD-KRAS G12C-GppNHp disruption assay (protein:protein interaction HTRF); assay type: biochemical
T1 construct: Avi-KRAS G12C (1-169) GppNHp; Avi (N)
Method in brief: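 HTRF measuring RAF1 RBD binding to GppNHp-loaded KRAS G12C (50 nM) in Tris pH 7.5, 100 mM NaCl, 5 mM MgCl2, 10% DMSO. Compound, KRAS, RBD and detection reagents each added sequentially with 1 h room-temperature incubations; 10-point titration; excitation 320 nm, emission 615 nm; activity as % of DMSO; IC50 derived.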

[2] = target: T2, GDP-loaded KRAS4b (amino acids 1-169) G12C/C118S protein (Homo sapiens, UniProt P01116, C118S/G12C); experiment: Covalent cysteine 12 modification by MALDI-TOF MS, GDP-loaded KRAS G12C; assay type: binding; settings: 15 minutes reaction time point
T2 construct: KRAS4b (amino acids 1-169) G12C/C118S protein; made in house
Method in brief: (§1)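 1 μM GppNHp-, GTP- or GDP-loaded KRAS4b (1-169) G12C/C118S in 20 mM HEPES, 150 mM NaCl, 1 mM MgCl2, pH 7.3, at 1:2.5 protein:compound, room temperature in the dark. Percent Cys12 modification from MALDI-TOF peak heights (adduct/total protein), reported at 15 min.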

[3] = target: T3, GppNHp-loaded KRAS4b (amino acids 1-169) G12C/C118S protein (Homo sapiens, UniProt P01116, C118S/G12C); experiment: Covalent cysteine 12 modification by MALDI-TOF MS, GppNHp-loaded KRAS G12C; assay type: binding; settings: 15 minutes reaction time point
T3 construct: KRAS4b (amino acids 1-169) G12C/C118S protein; made in house
Method in brief: as §1

SMILES | IC50 [1] | GDP-KRAS G12C percent of modification [2] | GppNHp-KRAS G12C percent of modification [3]
C=CC(=O)N1CC[C@@H](N(CC)c2nc(OC[C@@H]3C[C@@H](F)CN3C)nc3c(F)c(-c4ccc(F)c5sc(N)c(C#N)c45)c(C(F)(F)F)cc23)[C@H]1C [Compound 52] | < 500 nM | C (10%≤percent of modification <50%) | B (50≤percent of modification <70%)
C=CC(=O)N1CC[C@@H](N(C)c2nc(OC[C@@H]3C[C@@H](F)CN3C)nc3c(F)c(-c4ccc(F)c5sc(N)c(C#N)c45)c(C(F)(F)F)cc23)[C@H]1C [Compound 55] | < 500 nM | A (percent of modification ≥70%) | A (percent of modification ≥70%)
C=CC(=O)N1CC[C@@H](N(CC)c2nc(OC[C@@]34CCCN3C[C@H](F)C4)nc3cc(-c4ccc(F)c5sc(N)c(C#N)c45)c(C#N)cc23)[C@@H]1C [Compound 56] | < 500 nM | A (percent of modification ≥70%) | B (50≤percent of modification <70%)
C=CC(=O)N1CC[C@@H](N(CC)c2nc(OC[C@@]34CCCN3C[C@H](F)C4)nc3c(F)c(-c4ccc(F)c5sc(N)c(C#N)c45)ccc23)[C@@H]1C [Compound 57] | < 500 nM | A (percent of modification ≥70%) | B (50≤percent of modification <70%)
C=CC(=O)N1CC[C@@H](N(CC)c2nc(OC[C@@H]3CCCN3C)nc3c(F)c(-c4ccc(F)c5sc(N)c(C#N)c45)c(Cl)cc23)[C@H]1C [Compound 58] | < 500 nM | A (percent of modification ≥70%) | A (percent of modification ≥70%)
C=CC(=O)N1CC[C@@H](N(CC)c2nc(OC[C@@H]3C[C@@H](F)CN3C)nc3c(F)c(-c4ccc(F)c5sc(N)c(C#N)c45)c(Cl)cc23)[C@H]1C [Compound 60] | < 500 nM | C (10%≤percent of modification <50%) | B (50≤percent of modification <70%)
C=CC(=O)N1CC[C@@H](N(C)c2nc(OC[C@@H]3C[C@@H](OC)CN3C)nc3c(F)c(-c4ccc(F)c5sc(N)c(C#N)c45)c(Cl)cc23)[C@H]1C [Compound 63, 4-(4-(((2R,3R)-1-acryloyl-2-methylpyrrolidin-3-yl)(methyl)amino)-6-chloro-8-fluoro-2-(((2S,4R)-4-methoxy-1-methylpyrrolidin-2-yl)methoxy)quinazolin-7-yl)-2-amino-7-fluorobenzo[b]thiophene-3-carbonitrile] | < 500 nM | A (percent of modification ≥70%) | B (50≤percent of modification <70%)
C=CC(=O)N1CC[C@@H](N(C)c2nc(OC[C@@H]3CCCN3C)nc3c(F)c(-c4ccc(F)c5sc(N)c(C#N)c45)c(C(F)(F)F)cc23)[C@H]1C [Compound 67] | < 500 nM | A (percent of modification ≥70%) | A (percent of modification ≥70%)
C=CC(=O)N1CC[C@@H](N(CC)c2nc(OC[C@@H]3C[C@@H](OC)CN3C)nc3c(F)c(-c4ccc(F)c5sc(N)c(C#N)c45)c(Cl)cc23)[C@H]1C [Compound 73] | < 500 nM | B (50≤percent of modification <70%) | B (50≤percent of modification <70%)
C=CC(=O)N1CC[C@@H](N(CC)c2nc(OC[C@@H]3CC4(CC4)CN3C)nc3c(F)c(-c4ccc(F)c5sc(N)c(C#N)c45)c(Cl)cc23)[C@H]1C [Compound 75] | < 500 nM | A (percent of modification ≥70%) | A (percent of modification ≥70%)
C=CC(=O)N1CC[C@@H](N(CC)c2nc(OC[C@@]34CCCN3C[C@H](F)C4)nc3cc(-c4ccc(F)c5sc(N)c(C#N)c45)c(F)cc23)[C@H]1CC [Compound 76] | < 500 nM | A (percent of modification ≥70%) | A (percent of modification ≥70%)
C=CC(=O)N1CC[C@@H](N(CC)c2nc(OC[C@@]34CCCN3C[C@H](F)C4)nc3c(F)c(-c4ccc(F)c5sc(N)c(C#N)c45)c(Cl)cc23)[C@@H]1C [Compound 77] | < 500 nM | A (percent of modification ≥70%) | A (percent of modification ≥70%)
C=CC(=O)N1CC[C@@H](N(C)c2nc(OC[C@@]34CCCN3C[C@H](F)C4)nc3c(F)c(-c4nc(N)cc(C)c4C(F)(F)F)c(Cl)cc23)[C@H]1C [Compound 78, 1-[(2R,3R)-3-[[7-[6-amino-4-methyl-3-(trifluoromethyl)-2-pyridyl]-6-chloro-8-fluoro-2-[[(2R,8S)-2-fluoro-1,2,3,5,6,7-hexahydropyrrolizin-8-yl]methoxy]quinazolin-4-yl]-methyl-amino]-2-methyl-pyrrolidin-1-yl]prop-2-en-1-one] | < 500 nM | A (percent of modification ≥70%) | A (percent of modification ≥70%)
C=CC(=O)N1CC[C@@H](N(C)c2nc(N3CC(N(C)C)C3)nc3c(F)c(-c4ccc(F)c5sc(N)c(C#N)c45)c(C(F)(F)F)cc23)[C@H]1C [Compound 80] | < 500 nM | B (50≤percent of modification <70%) | B (50≤percent of modification <70%)
C=CC(=O)N1CC[C@@H](N(C)c2nc(OC[C@@H]3C[C@@H](F)CN3C)nc3c(F)c(-c4ccc(F)c5sc(N)c(C#N)c45)c(Cl)cc23)[C@@H]1C [Compound 82] | < 500 nM | B (50≤percent of modification <70%) | A (percent of modification ≥70%)

The next lines start with the values.

IC50 [1] | GDP-KRAS G12C percent of modification [2] | GppNHp-KRAS G12C percent of modification [3] | SMILES
< 500 nM | A (percent of modification ≥70%) | A (percent of modification ≥70%) | C=CC(=O)N1CC[C@@H](N(C)c2nc(OC[C@@H]3CCCN3C)nc3c(F)c(-c4ccc(F)c5sc(N)c(C#N)c45)c(Cl)cc23)[C@@H]1C [Compound 83]
< 500 nM | A (percent of modification ≥70%) | A (percent of modification ≥70%) | C=CC(=O)N1CC[C@@H](N(CC)c2nc(OC[C@@]34CCCN3C[C@H](F)C4)nc3c(F)c(-c4ccc(F)c5sc(N)c(C#N)c45)c(C(F)(F)F)cc23)[C@@H]1C [Compound 86]
< 500 nM | C (10%≤percent of modification <50%) | C (10%≤percent of modification <50%) | C=CC(=O)N1CC[C@@H](N(C)c2nc(OCC3(CN4CCOCC4)CC3)nc3c(F)c(-c4ccc(F)c5sc(N)c(C#N)c45)c(C(F)(F)F)cc23)[C@H]1C [Compound 87]
< 500 nM | B (50≤percent of modification <70%) | B (50≤percent of modification <70%) | C=CC(=O)N1CC[C@@H](N(C)c2nc(OC[C@@]34CCCN3C[C@H](F)C4)nc3c(F)c(-c4ccc(F)c5oc(N)c(C#N)c45)c(C(F)(F)F)cc23)[C@H]1C [Compound 90]
< 500 nM | A (percent of modification ≥70%) | A (percent of modification ≥70%) | C=CC(=O)N1CC[C@@H](N(C)c2nc(OC[C@@]34CCCN3C[C@H](F)C4)nc3c(F)c(-c4nc(N)cc(C)c4C(F)(F)F)c(C(F)(F)F)cc23)[C@@H]1C [Compound 91]
< 500 nM | A (percent of modification ≥70%) | A (percent of modification ≥70%) | C=CC(=O)N1CC[C@@H](N(C)c2nc(OC[C@@H]3CC4(CC4)CN3CC)nc3c(F)c(-c4ccc(F)c5sc(N)c(C#N)c45)c(Cl)cc23)[C@@H]1C [Compound 92]
< 500 nM | A (percent of modification ≥70%) | A (percent of modification ≥70%) | C=CC(=O)N1CC[C@@H](N(C)c2nc(OC[C@@H]3CC4(CC4)CN3CC)nc3c(F)c(-c4ccc(F)c5sc(N)c(C#N)c45)c(C(F)(F)F)cc23)[C@@H]1C [Compound 95]
< 500 nM | A (percent of modification ≥70%) | A (percent of modification ≥70%) | C=CC(=O)N1CC[C@@H](N(C)c2nc(OC[C@@H]3CC4(CC4)CN3CC)nc3c(F)c(-c4ccc(F)c5sc(N)c(C#N)c45)c(Cl)cc23)[C@H]1C [Compound 97]
500 to 5000 nM | D (percent of modification <10%) | D (percent of modification <10%) | C=CC(=O)N1CC[C@@H](N(C)c2nc(OC[C@@H]3C[C@@H](F)CN3CC)nc3c(F)c(-c4ccc(F)c5sc(N)c(C#N)c45)c(Cl)cc23)[C@H]1C [Compound 98]
< 500 nM | A (percent of modification ≥70%) | A (percent of modification ≥70%) | C=CC(=O)N1CC[C@@H](N(C)c2nc(OC[C@@H]3C[C@@H](OC)CN3CC)nc3c(F)c(-c4ccc(F)c5sc(N)c(C#N)c45)c(Cl)cc23)[C@H]1C [Compound 99]
